The results in this text go back to US12410160B2 (Gilead Sciences, Inc., priority 2021, dated 2025).

Some results are limits rather than exact numbers.

The assay addresses human KHK-C (Homo sapiens (Human), UniProt P50053). Description: KHK Biochemical Assay (IC50), ADP-Glo, KHK-C. The note with it: average of at least two separate assays. The method, then:
The His-tagged fusion protein was expressed using BL21 (DE3) with IPTG induction and purified using Ni-NTA column followed by dialysis into final buffer containing 25 mM Tris-HCl pH 8.0, 250 mM NaCl.
KHK Biochemical Assay (IC50)
Compounds were tested for KHK enzyme inhibition in a high-throughput 384-well assay format using the ADP-Glo assay (Promega) in buffer consisting of 50 mM Hepes (pH 7.4), 140 mM KCl, 5 mM MgCl2 and 0.01% Triton-X. 0.2 nM. […] Compounds were serially diluted (1:3) in DMSO.
The compounds were pre-incubated with 5 μL of 2× final enzyme concentration for 30 minutes before adding 5 μL of 2× final concentration of ATP and fructose. The plates were incubated at room temperature for 4 hours before adding ADP-Glo reagent to quench the enzyme reaction, followed by incubation at room temperature for 1 hour. The ADP-Glo detection reagent was then added to the plates and luminescence was measured on the Envision plate reader after 1 hour.
(In general: ADP-Glo turns the ADP formed in a reaction into a luminescent signal.)

Sequence of human KHK-C (P50053 whole entry, the tested form may be a part): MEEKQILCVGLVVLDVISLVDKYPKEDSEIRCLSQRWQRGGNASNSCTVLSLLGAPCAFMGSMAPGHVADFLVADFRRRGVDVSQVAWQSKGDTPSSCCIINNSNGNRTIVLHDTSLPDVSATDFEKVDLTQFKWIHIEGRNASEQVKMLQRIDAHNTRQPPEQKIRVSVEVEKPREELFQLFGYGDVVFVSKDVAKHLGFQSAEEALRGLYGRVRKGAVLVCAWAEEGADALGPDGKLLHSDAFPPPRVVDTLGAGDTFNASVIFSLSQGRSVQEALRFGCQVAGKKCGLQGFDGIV

In turn, “5-(7,7-difluoro-2-((2S,3R)-3-hydroxy-2-methylazetidin-1-yl)-6,7-dihydro-5H-cyclopenta[d]pyrimidin-4-yl)-2,3-dihydrospiro[indene-1,3′-[1,4]oxazepan]-5′-one [Example 552]” had an IC50 of 39.2 nM.

With `C[C@H]1[C@H](O)CN1c1nc(-c2ccc(OC(F)F)c([S@](C)(=N)=O)c2)c2c(n1)C(F)(F)CC2` (single isomer, unassigned) [Example 534], the half-maximal inhibitory concentration (IC50) was found to be 32 nM.

Take `COc1c(F)cc(-c2nc(N3C[C@@H](O)[C@@H]3C)nc3c2CCC3(F)F)cc1[S@@](C)(=N)=O` (single isomer, unassigned) [Example 536]: the IC50 turned out to be 6.1 nM.

For the molecule `COc1c(F)cc(-c2nc(N3C[C@@H](O)[C@@H]3C)nc3c2CCC3(F)F)cc1[S@](C)(=N)=O` (single isomer, unassigned) [Example 537], the IC50 was found to be 21.4 nM.

Turning to `COc1ccc(-c2nc(N3C[C@@H](O)[C@@H]3C)nc3c2CCC3(F)F)cc1[S@](=N)(=O)C1CC1` (single isomer, unassigned) [Example 540], the half-inhibitory concentration (IC50) is 13.5 nM. Compared with the last molecule, the IC50 is about 1.6-fold lower.

For the molecule `CS(=O)(=O)N[C@H]1COc2cc(-c3nc(N4CC[C@H]4C(F)F)nc4c3CCC4(F)F)ccc21` (single isomer, unassigned) [Example 546], the IC50 was found to be 23.9 nM.

The molecule `C[C@H]1[C@H](O)CN1c1nc(-c2ccc3c(c2)CC[C@]32COCC(=O)N2)c2c(n1)C(F)(F)CC2` (single isomer, unassigned) [Example 550] yielded an IC50 of 5 nM.

In the case of `C[C@H]1[C@H](O)CN1c1nc(-c2ccc3c(c2)C(F)(F)C[C@H]3NS(C)(=O)=O)c2c(n1)C(F)(F)CC2` (single isomer, unassigned) [Example 635], half-maximal inhibition (IC50) was put at 2.9 nM.

As for `C[C@H]1[C@H](F)CN1c1nc(-c2ccc3c(c2)S(=O)(=O)C[C@H]3NS(C)(=O)=O)c2c(n1)C(F)(F)CC2` (single isomer, unassigned) [Example 680], the IC50 was 1.4 nM.

Consider `C[C@@H]1N(c2nc(-c3ccc4c(c3)S(=O)(=O)C[C@@H]4NS(C)(=O)=O)c3c(n2)C(F)(F)CC3)CC1(F)F` (single isomer, unassigned) [Example 681], for which half-maximal inhibition (IC50) was put at 0.5 nM. Compared with the last molecule, the IC50 is about 2.8-fold lower.

`C[C@@H]1N(c2nc(-c3ccc4c(c3)S(=O)(=O)C[C@H]4NS(C)(=O)=O)c3c(n2)C(F)(F)CC3)CC1(F)F` (single isomer, unassigned) [Example 682] displayed an IC50 of 4 nM.

Molecule `C[C@H]1CCN1c1nc(-c2ccc([C@H](N)CS(C)(=O)=O)cc2)c2c(n1)C(F)(F)CC2` (single isomer, unassigned) [Example 775] returned an IC50 of 4.3 nM. This IC50 and that of the molecule before are within 1.5-fold of each other.

For `C[C@H]1CCN1c1nc(-c2ccc([C@@H](N)CS(C)(=O)=O)cc2)c2c(n1)C(F)(F)CC2` (single isomer, unassigned) [Example 776], the midpoint of inhibition, the IC50, lay at 2.8 nM. Compared with the last molecule, the IC50 is about 1.5-fold lower.

`C[C@H]1CCN1c1nc2c(c(-c3ccc4c(cnn4C(=O)CN)c3)n1)CCC2` [Example 237, (S)-2-amino-1-(5-(2-(2-methylazetidin-1-yl)-6,7-dihydro-5H-cyclopenta[d]pyrimidin-4-yl)-1H-indazol-1-yl)ethan-1-one] gave an IC50 (ADP-Glo) of 26.7 nM. In other words, the double-digit nanomolar range.

Where the note is “ADP-Glo”, `C[C@H]1CCN1c1nc2c(c(-c3ccc4nn(C(=O)CN)cc4c3)n1)CCC2` [Example 238, (S)-2-amino-1-(5-(2-(2-methylazetidin-1-yl)-6,7-dihydro-5H-cyclopenta[d]pyrimidin-4-yl)-2H-indazol-2-yl)ethan-1-one] registered an IC50 of 68.3 nM.

For `NC(=O)c1ccc(-c2nc(N3CC4(CCC4)C3)nc3c2CCC3)cc1` [Example 416, 4-(2-(2-azaspiro[3.3]heptan-2-yl)-6,7-dihydro-5H-cyclopenta[d]pyrimidin-4-yl)benzamide], the IC50 was more than 5000 nM.

`NC(=O)c1ccc(-c2nc(N3CC4(COC4)C3)nc3c2CCC3)cc1` [Example 417, 4-(2-(2-oxa-6-azaspiro[3.3]heptan-6-yl)-6,7-dihydro-5H-cyclopenta[d]pyrimidin-4-yl)benzamide] came in with an IC50 of more than 5000 nM.

With `C[C@H]1CCC(=O)N1c1nc2c(c(-c3ccc(C(N)=O)cc3)n1)CCC2` [Example 419, (S)-4-(2-(2-methyl-5-oxopyrrolidin-1-yl)-6,7-dihydro-5H-cyclopenta[d]pyrimidin-4-yl)benzamide], the 50% inhibitory concentration (IC50) was more than 5000 nM.

For the molecule `C[C@H]1[C@H](O)CN1c1nc2c(c(-c3ccc4cnc(N)cc4c3)n1)CCC2` [Example 448, (2S,3R)-1-[4-(3-amino-6-isoquinolyl)-6,7-dihydro-5H-cyclopenta[d]pyrimidin-2-yl]-2-methyl-azetidin-3-ol], the IC50 worked out at 121 nM. In other words, the sub-micromolar range.

As to `N#CC1CCN1c1nc2c(c(-c3ccc(C(N)=O)cc3)n1)CCC2` (stereo not drawn) [Example 458, 4-(2-(2-cyanoazetidin-1-yl)-6,7-dihydro-5H-cyclopenta[d]pyrimidin-4-yl)benzamide], half-maximal inhibition (IC50) required 57.2 nM.

`CS(=O)(=O)N[C@H]1COc2cc(-c3nc(N4C[C@@H](O)[C@@H]4CF)nc4c3CCC4(F)F)ccc21` [Example 484, N-((R)-6-(7,7-difluoro-2-((2R,3R)-2-(fluoromethyl)-3-hydroxyazetidin-1-yl)-6,7-dihydro-5H-cyclopenta[d]pyrimidin-4-yl)-2,3-dihydrobenzofuran-3-yl)methanesulfonamide] displayed an IC50 of 1.2 nM. This IC50 is about 48-fold lower than that of the molecule before.

Turning to `C[C@H]1[C@H](O)CN1c1nc(-c2ccc3c(c2)CC[C@@]32NC(=O)NC2=O)c2c(n1)C(F)(F)CC2` [Example 485, (R)-5′-(7,7-difluoro-2-((2S,3R)-3-hydroxy-2-methylazetidin-1-yl)-6,7-dihydro-5H-cyclopenta[d]pyrimidin-4-yl)-2′,3′-dihydrospiro[imidazolidine-4,1′-indene]-2,5-dione], the IC50 was found to be 22.6 nM.

`COc1c(F)cc(-c2nc(N3C[C@@H](O)[C@@H]3C)nc3c2CCC3(F)F)cc1S(C)(=N)=O` (stereo partly drawn) [Example 535, (5-(7,7-difluoro-2-((2S,3R)-3-hydroxy-2-methylazetidin-1-yl)-6,7-dihydro-5H-cyclopenta[d]pyrimidin-4-yl)-3-fluoro-2-methoxyphenyl)(imino)(methyl)-λ^6-sulfanone] gave an IC50 of 15.8 nM.

Turning to `COc1ccc(-c2nc(N3C[C@@H](O)[C@@H]3C)nc3c2CCC3(F)F)cc1S(=N)(=O)C1CC1` (stereo partly drawn) [Example 538, cyclopropyl(5-(7,7-difluoro-2-((2S,3R)-3-hydroxy-2-methylazetidin-1-yl)-6,7-dihydro-5H-cyclopenta[d]pyrimidin-4-yl)-2-methoxyphenyl)(imino)-λ^6-sulfanone], the IC50 amounted to 2.3 nM.

Consider `CS(=O)(=O)N[C@H]1COc2cc(-c3nc(N4CCC4C(F)F)nc4c3CCC4(F)F)ccc21` (stereo partly drawn) [Example 544, N-((3R)-6-(2-(2-(difluoromethyl)azetidin-1-yl)-7,7-difluoro-6,7-dihydro-5H-cyclopenta[d]pyrimidin-4-yl)-2,3-dihydrobenzofuran-3-yl)methanesulfonamide], for which the IC50 is 1.1 nM.

Turning to `C[C@H]1CCN1c1nc(-c2ccc3c(c2)C(NS(C)(=O)=O)CC3)c2c(n1)C(F)(F)CC2` (stereo partly drawn) [Example 607], the IC50 was 0.9 nM. The IC50 values of the last two molecules are within 1.5-fold of each other.

As for `C[C@H]1[C@H](O)CN1c1nc(-c2ccc3c(c2)C(F)(F)CC3NS(C)(=O)=O)c2c(n1)C(F)(F)CC2` (stereo partly drawn) [Example 633, N-(5-(7,7-difluoro-2-((2S,3R)-3-hydroxy-2-methylazetidin-1-yl)-6,7-dihydro-5H-cyclopenta[d]pyrimidin-4-yl)-3,3-difluoro-2,3-dihydro-1H-inden-1-yl)methanesulfonamide], inhibition was half-maximal at 2 nM (IC50).

Molecule `NC1(c2ccc(-c3nc(N4C[C@@H](O)[C@@H]4CF)nc4c3CCC4(F)F)cc2)COC1` [Example 677, (2R,3R)-1-[4-[4-(3-aminooxetan-3-yl)phenyl]-7,7-difluoro-5,6-dihydroeyelopenta[d]pyrimidin-2-yl]-2-(fluoromethyl)azetidin-3-ol] returned an IC50 of 4.8 nM.

For the molecule `C[C@H]1CCN1c1nc(-c2cccc(NS(C)(=N)=O)c2)c2c(n1)C(F)(F)CC2` (stereo partly drawn) [Example 684, 4-[3-[(amino-methyl-oxo-λ^6-sulfanylidene)amino]phenyl]-7,7-difluoro-2-[(2S)-2-methylazetidin-1-yl]-5,6-dihydrocyclopenta[d]pyrimidine], inhibition was half-maximal at 3.8 nM (IC50). The IC50 values of the last two molecules are within 1.5-fold of each other.

`C[C@H]1[C@H](O)CN1c1nc(-c2cc3c(c(S(C)(=N)=O)c2)OCC3)c2c(n1)C(F)(F)CC2` (stereo partly drawn) [Example 716, (5-(7,7-difluoro-2-((2S,3R)-3-hydroxy-2-methylazetidin-1-yl)-6,7-dihydro-5H-cyclopenta[d]pyrimidin-4-yl)-2,3-dihydrobenzofuran-7-yl)(imino)(methyl)-λ^6-sulfanone]: it took 3.8 nM to reach half-maximal inhibition (IC50).

Molecule `C[C@H]1CCN1c1nc2c(c(-c3ccc(Cl)c(S(C)(=N)=O)c3)n1)CCC2` (stereo partly drawn) [Example 727] gave a half-maximal inhibitory concentration (IC50) of more than 500 nM.

`C[C@H]1[C@H](O)CN1c1nc(-c2ccc3c(c2)CC(C)(C)C3NS(C)(=O)=O)c2c(n1)C(F)(F)CC2` (stereo partly drawn) [Example 816, N-[5-[7,7-difluoro-2-[(2S,3R)-3-hydroxy-2-methyl-azetidin-1-yl]-5,6-dihydrocyclopenta[d]pyrimidin-4-yl]-2,2-dimethyl-indan-1-yl]methanesulfonamide] came in with an IC50 (ADP-Glo) of 23.4 nM.

As to `C[C@H]1[C@H](O)CN1c1nc(-c2ccc3c(c2)S(=N)(=O)CCO3)c2c(n1)C(F)(F)CC2` (stereo partly drawn) [Example 818, (2S,3R)-1-[7,7-difluoro-4-(4-imino-4-oxo-2,3-dihydro-1,4λ^6-benzoxathiin-6-yl)-5,6-dihydrocyclopenta[d]pyrimidin-2-yl]-2-methyl-azetidin-3-ol], the IC50 (ADP-Glo) was determined as 2.5 nM.

As a reminder, the IC50 is the concentration that gives 50% inhibition. Low values mean inhibition by little substance, high ones a need for much substance.
